Assays:
[1] = biological target: T1, hNav1.1 (Homo sapiens, UniProt P35498); test: automated whole-cell patch clamp (QPatch 16X), HEK293-hNav1.1; assay type: cell-based; conditions: HEK293 cells stably expressing human channel; read-out: IC50 Nav1.1
T1 construct: host or cells: HEK293

[2] = system: mouse sciatic nerves; test: epifluorescence imaging (IVIS Spectrum) of sciatic nerves and organs 30 min after injection; assay type: in vivo; conditions: 30 min
Protocol: Animal Model. Female athymic nude mice (4-8 week-old, athymic-Nude (outbred) (Stock #: 088; Envigo, USA) were allowed to acclimatize at the Memorial Sloan Kettering Cancer Center (MSK) vivarium for 1 week with ad libitum food and water prior to the experimental procedure. For imaging experiments, animals were sacrificed 30 min post-tail vein injection of Hs1a-FL, Hs1a/Hs1a-FL, Hsp1a-FL, Hsp1a/Hsp1a-FL, or PBS. All animal experiments were performed in accordance with institutional guidelines and approved by the IACUC of MSK, following NIH guidelines for animal welfare.
Epifluorescence Imaging. Animals were intravenously injected with Hsp1a-FL (7 nmol, 68 μM of Hsp1a-FL in 100 μL of PBS, n=9), or Hs1a-FL (4 nmol, 45 μM of Hs1a-FL in 100 μL of PBS, n=3). To assess the specificity of the Hsp1a-FL or Hs1a-FL accumulation, animals were injected with a combination of Hsp1a and Hsp1a-FL (Hsp1a-FL, 68 μM, 7 nmol and Hsp1a 204 μM, 21 nmol in 100 μL PBS, n=9), Hs1a and Hs1a-FL (Hs1a-FL, 45 μM, 4 nmol and Hs1a, 120 μM, 12 nmol in 100 μL PBS, n=3) or PBS (n=9). Animals were sacrificed 30 min post-injection and epifluorescence images obtained. Epifluorescence images of the right sciatic nerve (RSN) and the left sciatic nerve (LSN) were obtained in situ. Epifluorescence of the biodistribution of the peptides in excited RSN, LSN, muscle, heart, kidney, liver, and brain were acquired with IVIS Spectrum (PerkinElmer) using a predefined GFP filterset (e.g., excitation=465/30 nm, emission=520-580 nm) based on the particular fluorophore employed in the compounds. Autofluorescence was removed through spectral unmixing. Semiquantitative analysis of the Hsp1a-FL or Hs1a-FL signal was conducted by measuring the average radiant efficiency (in units of unit [p/s/cm^2/sr]/[μW/cm^2]) in regions of interest (ROIs) that were placed on all resected organs under white light guidance.

[3] = biological target: T2, hNav1.5 (Homo sapiens, UniProt Q14524); test: automated whole-cell patch clamp (QPatch 16X), HEK293-hNav1.5; assay type: cell-based; conditions: HEK293 cells stably expressing human channel; read-out: IC50 Nav1.5
T2 construct: host or cells: HEK293

[4] = biological target: T3, hNav1.6 (Homo sapiens, UniProt Q9UQD0); test: automated whole-cell patch clamp (QPatch 16X), HEK293-hNav1.6; assay type: cell-based; conditions: HEK293 cells stably expressing human channel; read-out: IC50 Nav1.6
T3 construct: host or cells: HEK293

[5] = system: mouse sciatic nerves; test: confocal microscopy / histology of sciatic nerve sections after injection; assay type: in vivo; conditions: 30 min
Protocol: Confocal Microscopy. 5 or 10 μm cryosections of OCT-embedded sciatic nerve tissues from mice intravenously injected with Hsp1a-FL (7 nmol, 68 μM of Hsp1a-FL in 100 μL of PBS), Hsp1a/Hsp1a-FL (Hsp1a-FL, 68 μM, 7 nmol, and Hsp1a 204 μM, 21 nmol in 100 μL PBS), Hs1a-FL (4 nmol, 45 μM of Hs1a-FL in 100 μL of PBS), with the block Hs1a/Hs1a-FL (Hs1a-FL, 45 μM, 4 nmol and Hs1a 120 μM, 12 nmol in 100 μL PBS) or PBS were used to determine the distribution and localization of fluorescently-tagged peptide. Animal organs were incubated with Hoechst 33342 (blue, 20 μM, 1 nmol in 50 μL of PBS) to counterstain nuclei before embedding in Mowiol mounting medium. Fresh tissue samples were counterstained with 33342 (blue, 20 μM, 1 nmol in 50 μL of PBS) up to 90 min post-mortem and placed directly on a microscope slide for imaging.

[6] = biological target: T4, hNav1.2 (Homo sapiens, UniProt Q99250); test: automated whole-cell patch clamp (QPatch 16X), HEK293-hNav1.2; assay type: cell-based; conditions: HEK293 cells stably expressing human channel; read-out: IC50 Nav1.2
T4 construct: host or cells: HEK293

[7] = biological target: T5, hNav1.4 (Homo sapiens, UniProt P35499); test: automated whole-cell patch clamp (QPatch 16X), HEK293-hNav1.4; assay type: cell-based; conditions: HEK293 cells stably expressing human channel; read-out: IC50 Nav1.4
T5 construct: host or cells: HEK293

[8] = biological target: T6, hNav1.3 (Homo sapiens, UniProt Q9NY46); test: automated whole-cell patch clamp (QPatch 16X), HEK293-hNav1.3; assay type: cell-based; conditions: HEK293 cells stably expressing human channel; read-out: IC50 Nav1.3
T6 construct: host or cells: HEK293

[9] = biological target: T7, hNav1.7 (Homo sapiens, UniProt Q15858); test: automated whole-cell patch clamp (QPatch 16X), HEK293-hNav1.7; assay type: cell-based; conditions: HEK293 cells stably expressing human channel; read-out: IC50 Nav1.7
T7 construct: host or cells: HEK293

[10] = biological target: hERG (Homo sapiens, UniProt Q12809); test: Hs1a off-target voltage-gated potassium channel, hERG; assay type: cell-based
Protocol: Hs1a was isolated from the venom of the Chinese bird spider, Haplopelma schmidti. To assess the selectivity of Hs1a for Nav channel subtypes, Hs1a was tested on HEK cells stably transfected with human Nav1.1-Nav1.7 channels using automated patch clamp techniques. […] The IC50 value for hNav1.7 obtained in mammalian cells correlates with the IC50 obtained by two-electrode voltage clamp on hNav1.7 expressed in X. laevis oocytes. The selectivity of Hs1a for off-target voltage-gated calcium and potassium channels were also tested.

[11] = 4 nmol plus 12 nmol unmodified Hs1a

T5 sequence (P35499 whole entry): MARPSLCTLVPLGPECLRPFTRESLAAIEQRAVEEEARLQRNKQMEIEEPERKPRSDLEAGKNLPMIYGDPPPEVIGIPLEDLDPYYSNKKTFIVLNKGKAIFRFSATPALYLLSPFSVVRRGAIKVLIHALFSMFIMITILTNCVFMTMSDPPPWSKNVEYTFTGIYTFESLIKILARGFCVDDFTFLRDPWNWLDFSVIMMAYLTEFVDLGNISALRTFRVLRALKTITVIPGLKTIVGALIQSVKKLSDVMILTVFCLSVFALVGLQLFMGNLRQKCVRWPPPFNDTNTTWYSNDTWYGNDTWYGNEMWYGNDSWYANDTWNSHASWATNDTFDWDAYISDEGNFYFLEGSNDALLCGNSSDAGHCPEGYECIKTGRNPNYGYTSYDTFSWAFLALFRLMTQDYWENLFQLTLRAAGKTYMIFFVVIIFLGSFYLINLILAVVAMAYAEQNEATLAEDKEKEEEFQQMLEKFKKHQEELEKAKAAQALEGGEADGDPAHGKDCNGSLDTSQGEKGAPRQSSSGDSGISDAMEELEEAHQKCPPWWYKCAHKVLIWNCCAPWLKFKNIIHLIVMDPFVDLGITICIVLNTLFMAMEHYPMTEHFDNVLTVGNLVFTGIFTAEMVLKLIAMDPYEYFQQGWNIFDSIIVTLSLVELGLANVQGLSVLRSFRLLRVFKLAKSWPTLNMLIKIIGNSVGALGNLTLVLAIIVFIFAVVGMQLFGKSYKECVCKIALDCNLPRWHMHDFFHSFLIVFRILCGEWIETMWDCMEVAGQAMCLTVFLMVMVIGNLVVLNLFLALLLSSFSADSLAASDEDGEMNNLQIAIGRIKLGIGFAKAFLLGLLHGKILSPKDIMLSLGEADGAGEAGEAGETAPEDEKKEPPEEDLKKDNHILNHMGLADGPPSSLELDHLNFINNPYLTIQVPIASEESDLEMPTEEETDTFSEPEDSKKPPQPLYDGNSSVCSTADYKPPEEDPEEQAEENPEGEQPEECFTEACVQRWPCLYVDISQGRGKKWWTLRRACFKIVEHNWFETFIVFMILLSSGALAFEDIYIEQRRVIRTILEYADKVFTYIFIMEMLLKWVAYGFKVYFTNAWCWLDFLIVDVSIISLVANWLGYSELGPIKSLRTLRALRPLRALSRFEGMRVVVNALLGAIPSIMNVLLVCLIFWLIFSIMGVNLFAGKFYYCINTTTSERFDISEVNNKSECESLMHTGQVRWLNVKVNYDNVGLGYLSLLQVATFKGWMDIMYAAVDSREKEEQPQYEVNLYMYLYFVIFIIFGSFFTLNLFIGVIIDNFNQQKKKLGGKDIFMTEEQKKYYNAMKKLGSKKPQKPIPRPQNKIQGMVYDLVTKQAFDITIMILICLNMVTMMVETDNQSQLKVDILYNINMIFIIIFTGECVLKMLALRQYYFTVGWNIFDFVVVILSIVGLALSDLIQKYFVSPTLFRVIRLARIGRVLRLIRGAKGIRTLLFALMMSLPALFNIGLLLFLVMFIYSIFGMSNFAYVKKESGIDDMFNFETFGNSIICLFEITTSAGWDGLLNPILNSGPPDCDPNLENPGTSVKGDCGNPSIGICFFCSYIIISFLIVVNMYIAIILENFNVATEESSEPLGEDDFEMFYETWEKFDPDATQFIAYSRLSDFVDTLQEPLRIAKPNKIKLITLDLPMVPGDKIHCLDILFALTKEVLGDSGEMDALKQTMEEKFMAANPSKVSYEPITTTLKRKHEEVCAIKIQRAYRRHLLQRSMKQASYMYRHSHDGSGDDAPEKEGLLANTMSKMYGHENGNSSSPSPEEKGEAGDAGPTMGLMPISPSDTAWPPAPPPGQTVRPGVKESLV
T5 sequence (Q07699 19-218, further chain): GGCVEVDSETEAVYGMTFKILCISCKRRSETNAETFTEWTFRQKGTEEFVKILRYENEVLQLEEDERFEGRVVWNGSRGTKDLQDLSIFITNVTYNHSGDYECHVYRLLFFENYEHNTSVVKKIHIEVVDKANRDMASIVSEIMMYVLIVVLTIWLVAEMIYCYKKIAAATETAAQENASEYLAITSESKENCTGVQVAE
T7 sequence (Q15858 whole entry): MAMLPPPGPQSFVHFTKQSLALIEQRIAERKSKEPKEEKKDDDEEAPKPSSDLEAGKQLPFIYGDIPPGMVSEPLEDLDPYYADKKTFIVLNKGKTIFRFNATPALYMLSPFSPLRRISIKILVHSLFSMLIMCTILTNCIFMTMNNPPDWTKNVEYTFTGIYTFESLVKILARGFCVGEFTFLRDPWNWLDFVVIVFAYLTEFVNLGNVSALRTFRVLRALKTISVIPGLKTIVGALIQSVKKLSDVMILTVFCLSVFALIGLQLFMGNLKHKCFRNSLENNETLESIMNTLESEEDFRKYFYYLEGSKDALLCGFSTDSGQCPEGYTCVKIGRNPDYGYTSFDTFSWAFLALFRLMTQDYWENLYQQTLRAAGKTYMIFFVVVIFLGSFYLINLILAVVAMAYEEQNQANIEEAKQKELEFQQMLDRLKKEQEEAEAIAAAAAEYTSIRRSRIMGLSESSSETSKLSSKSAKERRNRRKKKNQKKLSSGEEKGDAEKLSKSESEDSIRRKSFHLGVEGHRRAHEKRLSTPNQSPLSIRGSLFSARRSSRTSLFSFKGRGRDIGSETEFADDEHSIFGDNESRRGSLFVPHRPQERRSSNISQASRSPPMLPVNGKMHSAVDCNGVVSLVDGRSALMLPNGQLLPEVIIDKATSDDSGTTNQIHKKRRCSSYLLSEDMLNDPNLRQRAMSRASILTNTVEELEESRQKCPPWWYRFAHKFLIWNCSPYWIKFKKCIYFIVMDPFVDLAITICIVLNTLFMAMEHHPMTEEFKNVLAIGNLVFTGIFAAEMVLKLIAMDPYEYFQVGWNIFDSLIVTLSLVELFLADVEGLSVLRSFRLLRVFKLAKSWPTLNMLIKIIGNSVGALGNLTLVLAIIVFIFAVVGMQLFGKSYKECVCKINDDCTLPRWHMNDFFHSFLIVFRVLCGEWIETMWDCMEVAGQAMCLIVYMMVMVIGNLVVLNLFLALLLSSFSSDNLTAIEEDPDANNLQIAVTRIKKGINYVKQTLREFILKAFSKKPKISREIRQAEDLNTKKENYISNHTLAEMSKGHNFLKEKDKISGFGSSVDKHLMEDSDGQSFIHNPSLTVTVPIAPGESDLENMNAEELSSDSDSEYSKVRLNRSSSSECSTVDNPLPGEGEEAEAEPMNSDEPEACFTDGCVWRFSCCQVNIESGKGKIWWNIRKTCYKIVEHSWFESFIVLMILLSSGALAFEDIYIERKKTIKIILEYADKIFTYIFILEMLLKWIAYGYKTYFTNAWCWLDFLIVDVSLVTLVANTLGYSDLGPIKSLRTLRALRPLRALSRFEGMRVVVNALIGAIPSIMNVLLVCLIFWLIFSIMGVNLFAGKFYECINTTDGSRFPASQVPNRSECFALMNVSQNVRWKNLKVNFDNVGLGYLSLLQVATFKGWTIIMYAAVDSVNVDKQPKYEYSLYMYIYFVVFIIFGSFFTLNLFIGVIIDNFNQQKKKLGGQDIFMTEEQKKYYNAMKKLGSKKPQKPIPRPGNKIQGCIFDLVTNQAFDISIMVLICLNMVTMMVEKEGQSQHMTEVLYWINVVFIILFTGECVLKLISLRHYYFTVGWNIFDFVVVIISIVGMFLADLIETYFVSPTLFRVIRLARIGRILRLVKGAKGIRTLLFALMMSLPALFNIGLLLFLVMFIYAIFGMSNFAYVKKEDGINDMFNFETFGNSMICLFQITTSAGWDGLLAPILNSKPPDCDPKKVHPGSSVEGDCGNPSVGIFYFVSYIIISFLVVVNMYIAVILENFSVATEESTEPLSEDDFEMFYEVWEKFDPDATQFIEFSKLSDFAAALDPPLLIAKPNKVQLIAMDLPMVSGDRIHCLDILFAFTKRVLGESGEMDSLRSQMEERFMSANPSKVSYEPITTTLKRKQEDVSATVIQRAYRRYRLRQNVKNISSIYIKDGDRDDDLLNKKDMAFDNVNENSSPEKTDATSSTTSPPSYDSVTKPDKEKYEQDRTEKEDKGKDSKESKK
T7 sequence (Q07699 19-218, further chain): as the sequence (Q07699 19-218, further chain) above

Row | Structure (SMILES) | IC50 [1] [nM] | radiant efficiency, resected sciatic nerves ([2]; 4 nmol i.v. alone) | radiant efficiency, brain ([2]; 4 nmol i.v.) | radiant efficiency, kidney ([2]; 4 nmol i.v.) | radiant efficiency, liver ([2]; 4 nmol i.v.) | radiant efficiency, spleen ([2]; 4 nmol i.v.) | radiant efficiency, resected sciatic nerves, co-injection (blocking) [2, 11] | IC50 [3] [nM] | IC50 [4] [nM] | signal in sciatic nerve sections ([5]; 4 nmol i.v. alone) | signal in sciatic nerve sections, blocked mice [5, 11] | IC50 [6] [nM] | IC50 [7] [nM] | IC50 [8] [nM] | IC50 [9] [nM] | IC50 [10] [nM]
1 | CC(C)C[C@H](NC(=O)[C@H](CCCCN)NC(=O)CNC(=O)[C@H](CCCCN)NC(=O)[C@@H]1CSSC[C@@H]2NC(=O)[C@H](CCCCN)NC(=O)[C@H](CC(=O)O)NC(=O)[C@H](CC(N)=O)NC(=O)[C@H](CCCCNC(=O)CCCCC[N+]3=C(/C=C/C4=CC(=C/C=C5/N(C)c6ccc7ccccc7c6C5(C)C)/CCC4)C(C)(C)c4c3ccc3ccccc43)NC(=O)[C@@H]3CCCN3C(=O)[C@H](CC(N)=O)NC(=O)[C@@H]3CSSC[C@H](NC(=O)[C@H](C(C)C)NC(=O)[C@H](CC(C)C)NC(=O)[C@H](CC(N)=O)NC(=O)[C@H](C)NC(=O)[C@H](CSSC[C@H](NC(=O)[C@H](CC(=O)O)NC(=O)[C@H](CC(N)=O)NC(=O)CN)C(=O)N[C@@H](CC(C)C)C(=O)NCC(=O)N[C@@H](Cc4ccccc4)C(=O)N[C@@H](Cc4c[nH]c5ccccc45)C(=O)N[C@@H](CO)C(=O)N[C@@H](C)C(=O)N3)NC2=O)C(=O)N[C@@H](CO)C(=O)N[C@@H](CO)C(=O)N[C@@H](CCCCN)C(=O)N[C@@H](Cc2c[nH]cn2)C(=O)N[C@@H](CCCCN)C(=O)N[C@@H](Cc2c[nH]c3ccccc23)C(=O)N1)C(=O)O [Hs1a-FL] | 19.4 | 1.6±0.3×10^5 [p/s/cm^2/sr]/[μW/cm^2] | 0.2±0.1×10^7 [p/s/cm^2/sr]/[μW/cm^2] | 1.4±1.1×10^7 [p/s/cm^2/sr]/[μW/cm^2] | 3.0±2.0×10^7 [p/s/cm^2/sr]/[μW/cm^2] | 0.8±0.5×10^7 [p/s/cm^2/sr]/[μW/cm^2] | 0.09±0.03×10^5 [p/s/cm^2/sr]/[μW/cm^2] | > 3000 | 19.2 | confirmed the presence of Hs1a-FL signal | No signal was detected | 81.2 | > 3000 | 107 | 26.9 | –
2 | CC(C)C[C@H](NC(=O)[C@H](CCCCN)NC(=O)CNC(=O)[C@H](CCCCN)NC(=O)[C@@H]1CSSC[C@@H]2NC(=O)[C@H](CCCCN)NC(=O)[C@H](CC(=O)O)NC(=O)[C@H](CC(N)=O)NC(=O)[C@H](CCCCN)NC(=O)[C@@H]3CCCN3C(=O)[C@H](CC(N)=O)NC(=O)[C@@H]3CSSC[C@H](NC(=O)[C@H](C(C)C)NC(=O)[C@H](CC(C)C)NC(=O)[C@H](CC(N)=O)NC(=O)[C@H](C)NC(=O)[C@H](CSSC[C@H](NC(=O)[C@H](CC(=O)O)NC(=O)[C@H](CC(N)=O)NC(=O)CN)C(=O)N[C@@H](CC(C)C)C(=O)NCC(=O)N[C@@H](Cc4ccccc4)C(=O)N[C@@H](Cc4c[nH]c5ccccc45)C(=O)N[C@@H](CO)C(=O)N[C@@H](C)C(=O)N3)NC2=O)C(=O)N[C@@H](CO)C(=O)N[C@@H](CO)C(=O)N[C@@H](CCCCN)C(=O)N[C@@H](Cc2c[nH]cn2)C(=O)N[C@@H](CCCCN)C(=O)N[C@@H](Cc2c[nH]c3ccccc23)C(=O)N1)C(=O)O [Hs1a] | – | – | – | – | – | – | – | – | – | – | – | – | – | – | – | > 3000
